Test [1] concerns the target T1, H3 receptor (Cavia porcellus, UniProt Q9JI35).
T1 construct: The source of the H3 receptors in this experiment was guinea pig brain; from tissue; host or cells: guinea pig brain membranes
As to the kind of experiment: H3 Receptor Binding Assay ([3H]R-α-methylhistamine, guinea pig brain membranes). The note with it: 3 nM [3H]R-α-methylhistamine, 30° C., 30 minutes. As for the experimental part: The source of the H3 receptors in this experiment was guinea pig brain. The animals used weighed 400-600 g. The tissue was homogenized using a Polytron in a solution of 50 mM Tris, pH 7.5. The final concentration of tissue in the homogenization buffer was 10% w/v. The homogenates were centrifuged at 1000×g for 10 minutes in order to remove clumps of tissue and debris. The resulting supernatants were then centrifuged at 50,000×g for 20 minutes in order to sediment the membranes, which were next washed 3 times in homogenization buffer (50,000×g for 20 minutes each). The membranes were frozen and stored at -70° C. until needed.
All compounds to be tested were dissolved in DMSO (dimethyl sulfoxide) and then diluted into the binding buffer (50 mM Tris, pH 7.5) such that the final concentration was 2 μg/mL with 0.1% DMSO. Membranes were then added (400 μg of protein) to the reaction tubes. The reaction was started by the addition of 3 nM [^3 H]R-α-methylhistamine (8.8 Ci/mmol) and incubated at 30° C. for 30 minutes. Bound ligand was separated from unbound ligand by filtration, and the amount of radioactive ligand bound to the membranes was quantitated by liquid scintillation spectrometry. All incubations were performed in duplicate and the standard error was less than 10% in all instances.

Test [2] has as its system guinea pig ileum. As to the kind of experiment: Guinea Pig Ileum Assay (electrical field stimulated contractions; H3 agonism/antagonism vs Rα-methylhistamine). It counts as cell-based. The note with it: for Guinea Pig Ileum: at 1 μg/ml, 1 μM chlorpheniramine in Tyrodes buffer. As for the experimental part: Male guinea pigs (450-500 g) were sacrificed by cervical dislocation. Portions of the ileum (20-40 cm) were removed and placed in Tyrodes solution (NaCl, 8.0; KCl, 0.2; MgCl2.6H2 O, 0.2; CaCl2. 0.13; NaH2 PO4. 0.06; dextrose, 1.0; NaHCO3, 1.0 g/l). The ilea were cut into 2.5 cm segments, mounted between platinum wire coaxial electrodes and placed in water-jacketed organ baths containing 25 ml of the Tyrodes solution. Bath fluid temperature was maintained at 37° C. and aerated with 95% 02-5%CO2. The muscles were suspended from isometric force transducers (Grass FT023C) under 0.3 g resting tension. Contractions were amplified on a Buxco tension monitor and recorded on a Harvard polygraph. Monophasic rectangular-wave electrical pulses were delivered to the tissues every 60 seconds from a stimulator (model S-48, Grass Instruments Co.). The ileum segments were maximally stimulated with 3 volts at 40 Hz frequency and 1 mseconds duration in 1 pulse train every 60 seconds. The duration of 1 msecond was then decreased by 0.1 msecond until the size of the contraction reached 80% of the maximal response. Once this 80% response was determined it was evoked every 60 seconds throughout the experiment. All experiments were conducted with 1μM of chlorpheniramine present in the Tyrodes buffer.
Rα-methylhistamine inhibits the electrical field stimulated contractions of the guinea pig ileum and was used as the H3 agonist reference standard. H3 agonists were studied for their ability to inhibit the electrical field stimulated contractions and their activity was expressed as a percentage of the maximum Rα-methylhistamine effect. Agonists were tested by addition of logarithmically increasing doses to the bath fluid at intervals of 1 minute. […]
Relative potency for agonists was determined from the pD2 calculations (Furchgott, R.F., The Pharmacology of Vascular Smooth Muscle. Pharm. Rev. 7, 183, 1955.) on 5 separate tissues. Relative potency for antagonists was determined from pA2 calculations (See Furchgott, above) on 15 separate tissues.

We go through two molecules from patent US5352707A, “Method for treating airway congestion” (Harbor Branch Oceanographic Institution, Inc., priority 1992, dated 1994).

T1 sequence (Q9JI35 whole entry): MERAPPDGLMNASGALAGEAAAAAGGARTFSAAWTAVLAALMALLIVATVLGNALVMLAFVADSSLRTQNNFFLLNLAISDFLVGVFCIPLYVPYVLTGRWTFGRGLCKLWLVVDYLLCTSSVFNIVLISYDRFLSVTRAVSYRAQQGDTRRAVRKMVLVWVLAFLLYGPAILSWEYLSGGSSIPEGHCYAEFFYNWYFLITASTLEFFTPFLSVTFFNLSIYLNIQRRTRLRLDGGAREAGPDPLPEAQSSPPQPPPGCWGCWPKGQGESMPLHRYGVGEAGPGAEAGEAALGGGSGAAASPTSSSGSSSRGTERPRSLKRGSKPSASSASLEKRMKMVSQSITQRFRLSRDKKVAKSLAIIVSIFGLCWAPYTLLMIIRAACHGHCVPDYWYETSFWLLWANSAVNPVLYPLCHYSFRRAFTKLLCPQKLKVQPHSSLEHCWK

Regarding `COC1=C(Br)C(O)C2(C=C1Br)CC(C(=O)NCCc1c[nH]cn1)=NO2` (centres unmarked) [Aerophobin-1], the “H3 receptor Binding IC50” value in test [1] stood at 4.3 µg/mL. Besides, in test [2], the “Guinea Pig Ileum” value was “not active”.

`CN(C)CCCOc1c(Br)cc(CCN(C)C)cc1Br` [Aplysamine-1] gave an IC50 in test [1] of 833 nM. For the same molecule, in test [2], the “activity on the guinea pig ileum” value is recorded as “active on the guinea pig ileum as an H3 -antagonist” and the “Guinea Pig Ileum” value is recorded as “antagonist”.
